Reference: a melting point compilation (Tetko et al.; mined from patent text by program, amines drawn as free bases though some values may be those of a salt)

| melting point | SMILES |
| --- | --- |
| 131 to 133 °C | CC(C)=C1OC(=O)N(c2cc(OC3CCCC3)c(Cl)cc2F)C1=N |
| 117 to 118 °C | CC(F)(F)c1cccc(Oc2ccc(C3CCCN4CCS(=O)(=O)N=C34)cc2)c1 (centres undefined) |
| 77 to 79 °C | CC(C)C[C@H](NC(=O)OCC1CCCCCC1)C(=O)N[C@@H](Cc1ccccc1)C(=O)CSCc1ccco1 |
| 168 to 170 °C | COc1ccccc1CN1CCN(C)CC1C1=NCCN1 (centres undefined) |
| 109 to 112 °C | O=S(=O)(c1cc(Cl)[nH]c1-c1ccc(Cl)cc1)C(F)(F)F |
| 92 to 93 °C | CN(C)Cc1cccc(OCCCNc2nc(N)n[nH]2)c1 |
| 193 °C | NC(=NO)c1ccc(O)c(O)c1 |
| 215 to 217 °C | C=CCOC(=O)C1=C(C)NC(C)=C(C(=O)OC)C1c1cccc([N+](=O)[O-])c1 (single isomer, unassigned; (-)) |
| > 265 °C | COc1cc2cc3ncc(C#N)c(Nc4ccc(Oc5ccccc5)cc4)c3cc2cc1OC |
| 183 to 184 °C | Cn1ccc2cc(NC(=O)CC34CC5CC(CC(C5)C3)C4)ccc21 |
| 75 to 76 °C | CO[C@@H]1[C@H](O)[C@@H](CO)O[C@H]1n1cnc2c(N[C@H](C)Cc3sccc3Cl)ncnc21 |
| 205 to 208 °C | COc1ccc(-c2nc(N)n3nc(-c4ccco4)nc3n2)cc1OC |
| 110 to 111 °C | CN(CCOc1ccc(Cn2cc(CCC(=O)O)c(-c3ccccc3)c2)cc1)c1ccccn1 |
| 142 to 144 °C | CC1CC(=Cc2ccccc2OCC(O)CN2CCC(c3ccc4ccccc4c3)CC2)C(=O)O1 (centres undefined) |
| 167 to 168 °C | CCCC(=O)c1cnc2ccccc2c1Nc1ccccc1OC |
| 203 to 206 °C | CCCCCCCCCc1ccc(-c2nc(C)c(C(C)=NNC(=N)N)s2)cc1 |
| 206 to 208 °C | O=C(O)COc1cc2c(-c3ccc(Cl)cc3)csc2c(Cl)c1Cl |
| 149 to 152 °C | CCCCN(CCCC)Cc1cc(NC(=O)Nc2c(C(C)C)cccc2C(C)C)n(Cc2ccccc2)n1 |
| 117 to 120 °C | O=[N+]([O-])c1ccc(NS(=O)(=O)C(F)(F)F)c(Oc2ccc3ccccc3c2)c1 |
| 132 to 135 °C | O=C1CCNc2c1cc(Cl)cc2[N+](=O)[O-] |
| 122 to 124 °C | O=C1CCN(Cc2ccccc2)C(=O)C1=C1SC=CS1 |
| 76 °C | COC(=O)c1scc(C)c1-n1cccc1 |

| melting point | SMILES |
| --- | --- |
| 137 to 139 °C | COC(=O)CCc1nc(CCc2ccc(C(=O)OC)cc2)ccc1O |
| 255 to 258 °C | CC12CCC(O)CC1=CCC1C2CCC2(C)C1CCC2n1ccnc1 (centres undefined) |
| 121 °C | FC(F)(F)c1cc(-c2cccs2)[nH]n1 |
| 230 °C | Cc1ccnc(N2CCN(CCc3c(C)n4c5c(cc([N+](=O)[O-])cc35)CCC4)CC2)c1 |
| 130 to 132 °C | COCCN1c2ccc([N+](=O)[O-])cc2CS1(=O)=O |
| 93 to 97 °C | CCCCOc1cc2cc(CO)c(CO)c(-c3ccnc(NN)c3)c2cc1OC |
| 50 to 51 °C | NNc1c(Cl)cc(C(F)(F)F)c(F)c1Cl |
| 190 to 192 °C | CCOC(=O)C(=NOC)C(C)=NNC(C)=O |
| 93 to 96 °C | CCCCCCCCCCOc1ccccc1C(=N)OCC |
| 137 to 140 °C | Cn1nc(-c2ccccc2SCc2ccccc2)oc1=O |
| 287 to 289 °C | C[C@@H](n1cnc2cc(N3CCN(c4ccc([N+](=O)[O-])cc4)CC3)ccc2c1=O)[C@](O)(Cn1cncn1)c1ccc(F)cc1F |
| 88 °C | CCOC(=O)c1ccc(NC(C)c2ccccc2)cc1 (centres undefined) |
| 167 to 210 °C | COc1cc(CNC(=O)c2cc3c(=O)n(CC4CCCCC4)c(=O)n(C)c3s2)ccn1 |
| 97 to 98 °C | CON=C(C(=O)O)c1cccc(OC)c1 |
| 254 to 255 °C | COc1ccc(NC(C)=C(C#N)C#N)cc1 |
| 85 to 87 °C | CCN1C=C(C(=O)OC)C(=O)CC1c1ccc(N(C)C)cc1 (centres undefined) |
| 59 to 61 °C | CCOC(=O)c1ccc(CCNS(=O)(=O)C=Cc2ccccc2)cc1 |
| 99 to 101 °C | CC(=O)Oc1cc(-n2c(=O)cc(C(F)(F)F)n(C)c2=O)c(F)cc1Cl |
| 64 to 69 °C | ON=Cc1ccc(Cl)c(Cl)c1OCc1ccccc1 |
| 237 to 238 °C | Clc1nc(-c2cccnc2)[nH]c1Cl |
| 137 to 138 °C | COCN1NC(=O)N(C)C1c1ccccc1-c1ccc(CBr)cc1 (centres undefined) |
| 173 to 174 °C | Brc1cccc2[nH]cc(Cc3cccnc3)c12 |

| melting point | SMILES |
| --- | --- |
| 108 to 109 °C | Nc1ccccc1C(=O)N1CCN(CCc2ccc(Cl)cc2)CC1 |
| 149 to 155 °C | CN(C)CCOc1ccc(C(=C(c2ccccc2)C(F)(F)F)c2ccc(O)cc2)cc1 |
| 100 to 103 °C | COC(=O)c1cc(C#N)ccc1Cl |
| 222 to 224 °C | CC(=O)Oc1ccc(C(=O)N2CCN(C(N)=O)C2=O)cc1OC(C)=O |
| 122 to 123 °C | C=CCC1C(=O)c2cc(OC)ccc2C2CCC3(C)C(O)CCC3C12 (centres undefined) |
| 235 to 237 °C | COc1cccc(OC)c1C(=O)Nc1nnc(-c2ccccc2Cl)s1 |
| 245 to 246 °C | O=c1nc(-c2cccc(Sc3ccncc3)n2)sc2ccccc12 |
| 187 to 188 °C | COc1ccc(-c2cc(-c3ccc(OC)c(OC)c3)c(C#N)c(C)n2)cc1 |
| 95 to 96 °C | Cc1ccccc1CCNC(=O)c1ccc(Cl)cc1 |
| 149 to 151 °C | CCCc1nc2c(N)nc3ccccc3c2n1CCOCCCS(C)(=O)=O |
| 94 to 96 °C | Oc1cccc(C(O)(c2nccs2)C(F)(F)F)c1 (centres undefined) |
| 156 to 166 °C | Cc1nn(C)c2ccc(C(=O)O)c(C3=NC(C)(C(C)C)C(=O)N3)c12 (centres undefined) |
| 169 to 171 °C | Cc1ccc(-c2ccc3c(c2)C=C(C(=O)Nc2ccc(CN(C)C4CCSCC4)cc2)CO3)cc1 |
| 202 to 203 °C | Cc1ccc(Cc2cnc(NCCCCNc3ncc(Cl)cc3C)[nH]c2=O)cn1 |
| 41 to 42 °C | CCCc1c(C(C)C)nn2ccccc12 |
| 153 to 154 °C | COc1ccccc1-n1ccc(=O)c(-c2ccnn2-c2ccccc2)n1 |
| 122 to 124 °C | CN(C)c1ccc(C(=O)c2ccncc2)cc1 |
| 165 °C | CCN1CCc2ccc(Nc3ncc(Cl)c(N[C@@H]4CCCC[C@H]4NC(=O)C(F)(F)F)n3)cc2CC1 |
| 137 to 139 °C | COC(=O)CCC(=NO)C(C)(C)NCCCNC(C)(C)C(Cn1ccnc1[N+](=O)[O-])=NO |
| 249 to 251 °C | Cc1n[nH]c(=O)c(-c2c(F)cc(F)cc2F)c1-c1cccs1 |

| SMILES | melting point |
| --- | --- |
| COC(=O)c1ccc2nc(-c3ccc4c(c3)C(C)(C)CCC4(C)C)[nH]c2c1 | 223 °C |
| CN1CCCC(c2cccc3ccc(N)cc23)C1 (centres undefined) | 117 to 120 °C |
| CC(=O)NCC(=O)NCC(=O)N1CC1C#N (centres undefined) | 70 to 76 °C |
| C[C@H]1[C@@H](C#N)CCN1c1ccc(C#N)c2ccccc12 | 143 to 145 °C |
| CCc1cnccc1C[C@@H](O)C(Cl)(Cl)Cl | 132 to 134 °C |
| COc1c(C(O)CNC(C)(C)Cc2ccccc2)ccc(O)c1O (centres undefined) | 149 to 150 °C |
| O=[N+]([O-])c1c(NCCC23CCCN2CCC3)cnc2ccccc12 | 106 to 108 °C |
| CN1CC(Cn2ccnc2-c2ccccc2)CC2c3cccc4[nH]cc(c34)CC21 (centres undefined) | 193 to 195 °C |
| Cc1[nH]c2cccc3c2c1CC1C3CC(N)CN1C (centres undefined) | 240 °C |
| C1=C(c2ccccc2)CCN(Cc2cc3ccccc3[nH]2)C1 | 128 to 130 °C |
